Reference: PubChem BioAssay AID248 (DTP/NCI, 2004)
“And” between values parts separate entries of the source, which are not always exact repeats. Equal entries are not always repeated. Toxic doses and inconclusive results are not listed. Rule as the data show it: active = T/C of 150% or more; inactive = T/C below 125%.

Tested on: L1210 leukemia ip in BDF1 mice, survival T/C
Experiment: NCI In Vivo Anticancer Drug Screen. Data for tumor model L1210 Leukemia (intraperitoneal) in B6D2F1 (BDF1) mice
Settings: endpoint: mean survival time, higher = longer survival
How it was run: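 In this screen, tumor-bearing mice given compound are compared to those given vehicle, and their survival values are reported as a treated-to-control quotient.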

[1] = dose: 75.0 mg/kg/injection, schedule: Q01DX001 (ip), vehicle: saline
[2] = dose: 150.0 mg/kg/injection, schedule: Q01DX001 (ip), vehicle: saline
[3] = dose: 100.0 mg/kg/injection, schedule: Q01DX001 (ip), vehicle: Klucel (hydroxypropylcellulose) (HPC)
[4] = dose: 100.0 mg/kg/injection, schedule: Q01DX009 (ip), vehicle: saline with Tween-80
[5] = dose: 100.0 mg/kg/injection, schedule: Q04DX003 (ip), vehicle: saline with Tween-80
[6] = dose: 200.0 mg/kg/injection, schedule: Q01DX001 (ip), vehicle: Klucel (hydroxypropylcellulose) (HPC)
[7] = dose: 200.0 mg/kg/injection, schedule: Q01DX009 (ip), vehicle: saline with Tween-80
[8] = dose: 200.0 mg/kg/injection, schedule: Q04DX003 (ip), vehicle: saline with Tween-80
[9] = dose: 100.0 mg/kg/injection, schedule: Q04DX002 (ip), vehicle: saline with Tween-80
[10] = dose: 200.0 mg/kg/injection, schedule: Q04DX002 (ip), vehicle: saline with Tween-80

Measured: T/C

CC(=O)C(O)N1C(=O)C=CC1=O (centres undefined)
inactive: dose: 1.25 mg/kg/injection, schedule: Q01DX009 (ip), vehicle: saline 103 % of control | dose: 1.25 mg/kg/injection, schedule: Q#A X018 (ip), vehicle: saline 103 % of control | dose: 2.5 mg/kg/injection, schedule: Q01DX009 (ip), vehicle: saline 100 % of control | dose: 2.5 mg/kg/injection, schedule: Q04DX003 (ip), vehicle: water 104 % of control | dose: 2.5 mg/kg/injection, schedule: Q## X006 (ip), vehicle: water 104 % of control | dose: 2.5 mg/kg/injection, schedule: Q#A X018 (ip), vehicle: saline 102 % of control | dose: 5.0 mg/kg/injection, schedule: Q01DX009 (ip), vehicle: saline 91 % of control | dose: 5.0 mg/kg/injection, schedule: Q04DX003 (ip), vehicle: water 102 % of control | dose: 5.0 mg/kg/injection, schedule: Q## X006 (ip), vehicle: water 102 % of control | dose: 5.0 mg/kg/injection, schedule: Q#A X018 (ip), vehicle: saline 100 % of control | dose: 10.0 mg/kg/injection, schedule: Q## X006 (ip), vehicle: water 104 % of control | dose: 10.0 mg/kg/injection, schedule: Q#A X018 (ip), vehicle: saline 100 % of control

CS(=O)(=O)OCCN(CCOS(C)(=O)=O)c1ccccc1
inactive: dose: 100.0 mg/kg/injection, schedule: Q01DX001 (ip), vehicle: other 100 % of control

Nc1ncccc1O
inactive: dose: 10.0 mg/kg/injection, schedule: Q01DX001 (ip), vehicle: saline 105 % of control | dose: 20.0 mg/kg/injection, schedule: Q01DX001 (ip), vehicle: saline 95 % of control | dose: 40.0 mg/kg/injection, schedule: Q01DX001 (ip), vehicle: saline 94 % of control

Nc1ccc(NC(=S)S)cc1
inactive: [1] 93 % of control | [2] 93 % of control

O=[N+]([O-])c1cc(S(=O)(=O)O)cc([N+](=O)[O-])c1Cl
inactive: [1] 112 % of control | [2] 109 % of control | dose: 300.0 mg/kg/injection, schedule: Q01DX001 (ip), vehicle: saline 113 % of control

CCCCCCCC/C=C\CCCCCCCC(=O)OCCCCC
inactive: [3] 93 % of control | dose: 100.0 mg/kg/injection, schedule: Q01DX009 (ip), vehicle: saline sonified 102 % of control | [4] 108 % of control | [5] 93 % of control | [6] 92 % of control | dose: 200.0 mg/kg/injection, schedule: Q01DX009 (ip), vehicle: saline sonified 100 % of control | [7] 98 % of control | [8] 91 % of control | dose: 400.0 mg/kg/injection, schedule: Q01DX001 (ip), vehicle: Klucel (hydroxypropylcellulose) (HPC) 103 % of control | dose: 400.0 mg/kg/injection, schedule: Q01DX009 (ip), vehicle: saline sonified 93 % of control | dose: 400.0 mg/kg/injection, schedule: Q01DX009 (ip), vehicle: saline with Tween-80 95 % of control | dose: 400.0 mg/kg/injection, schedule: Q04DX003 (ip), vehicle: saline with Tween-80 95 % of control

CC(C)(C)C1=CC(=O)C(N=[N+]=[N-])=CC1=O
inactive: dose: 100.0 mg/kg/injection, schedule: Q04DX002 (ip), vehicle: saline 94 % of control | dose: 200.0 mg/kg/injection, schedule: Q04DX002 (ip), vehicle: saline 115 % of control

N#CC(Nc1ccccc1)c1ccc(Cl)cc1 (centres undefined)
inactive: dose: 50.0 mg/kg/injection, schedule: Q01DX009 (ip), vehicle: saline with Tween-80 101 % of control | [4] 97 % of control | [7] 94 % of control

N#Cc1cn(C2OC(CO)C(O)C2O)c2ncn3ccnc3c12 (centres undefined)
inactive: dose: 100.0 mg/kg/injection, schedule: Q04DX003 (ip), vehicle: water 116 % of control | dose: 200.0 mg/kg/injection, schedule: Q04DX003 (ip), vehicle: water 113 % of control and 117 % of control | dose: 300.0 mg/kg/injection, schedule: Q04DX003 (ip), vehicle: water 121 % of control | dose: 500.0 mg/kg/injection, schedule: Q04DX003 (ip), vehicle: water 107 % of control

Clc1ccc(C[P+](c2ccccc2)(c2ccccc2)c2ccccc2)c(Cl)c1
inactive: dose: 4.5 mg/kg/injection, schedule: Q01DX009 (ip), vehicle: saline 109 % of control | dose: 6.25 mg/kg/injection, schedule: Q01DX009 (ip), vehicle: saline with Tween-80 100 % of control | dose: 9.0 mg/kg/injection, schedule: Q01DX009 (ip), vehicle: saline 106 % of control | dose: 9.38 mg/kg/injection, schedule: Q01DX001 (ip), vehicle: water 100 % of control | dose: 12.5 mg/kg/injection, schedule: Q01DX009 (ip), vehicle: saline with Tween-80 94 % of control

O=S(c1ccccc1)C1CCCCC1O (centres undefined)
inactive: [9] 108 % of control | [10] 118 % of control

Nc1ccc(OC(=O)Nc2ccc(O)cc2)cc1
inactive: dose: 53.0 mg/kg/injection, schedule: Q01DX Z (ip), vehicle: other 94 % of control | dose: 80.0 mg/kg/injection, schedule: Q01DX Z (ip), vehicle: other 97 % of control | dose: 80.0 mg/kg/injection, schedule: Q01DX Z (ip), vehicle: saline 89 % of control | dose: 120.0 mg/kg/injection, schedule: Q01DX Z (ip), vehicle: other 105 % of control | dose: 180.0 mg/kg/injection, schedule: Q01DX Z (ip), vehicle: other 100 % of control | dose: 180.0 mg/kg/injection, schedule: Q01DX Z (ip), vehicle: saline 92 % of control | dose: 270.0 mg/kg/injection, schedule: Q01DX Z (ip), vehicle: other 102 % of control | dose: 270.0 mg/kg/injection, schedule: Q01DX Z (ip), vehicle: saline 93 % of control | dose: 404.0 mg/kg/injection, schedule: Q01DX Z (ip), vehicle: other 100 % of control | dose: 405.0 mg/kg/injection, schedule: Q01DX Z (ip), vehicle: saline 92 % of control

CC(C)(C)C(=O)NCc1ccccc1
inactive: dose: 100.0 mg/kg/injection, schedule: Q01DX001 (ip), vehicle: saline with Tween-80 100 % of control | dose: 200.0 mg/kg/injection, schedule: Q01DX001 (ip), vehicle: saline with Tween-80 96 % of control | dose: 400.0 mg/kg/injection, schedule: Q01DX001 (ip), vehicle: saline with Tween-80 96 % of control

COc1ccc2c(c1)CCC1C2CCC2C(O)CCCC21 (centres undefined)
inactive: dose: 50.0 mg/kg/injection, schedule: Q01DX001 (ip), vehicle: Klucel (hydroxypropylcellulose) (HPC) 95 % of control | [3] 93 % of control | [6] 87 % of control

CC12C=CC(CC1)C2(C)C (centres undefined)
inactive: dose: 100.0 mg/kg/injection, schedule: Q01DX009 (ip), vehicle: saline 95 % of control | dose: 200.0 mg/kg/injection, schedule: Q01DX009 (ip), vehicle: saline 92 % of control

O=c1oc(-c2cc([N+](=O)[O-])ccc2Cl)nc2ccccc12
inactive: [5] 100 % of control | [8] 93 % of control

O=C(OCCc1ccccc1)c1ccccc1
inactive: [9] 100 % of control | [10] 100 % of control | dose: 400.0 mg/kg/injection, schedule: Q04DX002 (ip), vehicle: saline with Tween-80 103 % of control

Cc1c(C2CCC(=O)C2)c2ccccc2n1C (centres undefined)
inactive: dose: 100.0 mg/kg/injection, schedule: Q01DX001 (ip), vehicle: carboxymethylcellulose (CMC) 93 % of control | dose: 200.0 mg/kg/injection, schedule: Q01DX001 (ip), vehicle: carboxymethylcellulose (CMC) 89 % of control | dose: 400.0 mg/kg/injection, schedule: Q01DX001 (ip), vehicle: carboxymethylcellulose (CMC) 88 % of control

CC(C)CCCC(C)C1CCC2C3CC=C4CC(OC(=O)C(Cl)(Cl)Cl)CCC4(C)C3CCC12C (centres undefined)
inactive: dose: 40.0 mg/kg/injection, schedule: Q01DX009 (sc), vehicle: steriod suspending solution 94 % of control | dose: 50.0 mg/kg/injection, schedule: Q04DX003 (sc), vehicle: steriod suspending solution 98 % of control | dose: 75.0 mg/kg/injection, schedule: Q01DX009 (sc), vehicle: steriod suspending solution 101 % of control | dose: 100.0 mg/kg/injection, schedule: Q04DX003 (sc), vehicle: steriod suspending solution 101 % of control | dose: 150.0 mg/kg/injection, schedule: Q01DX009 (sc), vehicle: steriod suspending solution 95 % of control | dose: 200.0 mg/kg/injection, schedule: Q04DX003 (sc), vehicle: steriod suspending solution 108 % of control
